According to ChEMBL document CHEMBL1201862, “PubChem BioAssay data set” (2004):
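In this assay, cells in 96-well plates receive the compound at five concentrations for 48 hours. Endpoints are linearly interpolated between the surrounding concentrations. Here, GI50 denotes the concentration required for 50% inhibition of growth.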 Calls of active or inactive are those of the source. Rule as the data show it: active = GI50 up to about 1.1 µM and inactive = higher.

Key:
Experiment in all cases: NCI anticancer screen, dose series, 48 h
SK-MEL-5 = tested on: SK-MEL-5
HCT-15 = tested on: HCT-15
RXF 393 = tested on: RXF 393
MOLT-4 = tested on: MOLT-4
SW-620 = tested on: SW-620
MDA-MB-435 = tested on: MDA-MB-435
SR = tested on: SR
A498 = tested on: A498
ACHN = tested on: ACHN
Malme-3M = tested on: Malme-3M
NCI/ADR-RES = tested on: NCI/ADR-RES
NCI-H23 = tested on: NCI-H23
HCT-116 = tested on: HCT-116
UO-31 = tested on: UO-31
UACC-62 = tested on: UACC-62
NCI-H226 = tested on: NCI-H226
SF-295 = tested on: SF-295
EKVX = tested on: EKVX
CAKI-1 = tested on: CAKI-1
KM12 = tested on: KM12

Row | Compound | GI50 (SK-MEL-5) | GI50 (HCT-15) [µM] | GI50 (RXF 393) | GI50 (MOLT-4) | GI50 (SW-620) | GI50 (MDA-MB-435) | GI50 (SR) | GI50 (A498) | GI50 (ACHN) | GI50 (Malme-3M) | GI50 (NCI/ADR-RES) | GI50 (NCI-H23) | GI50 (HCT-116) | GI50 (UO-31) | GI50 (UACC-62) | GI50 (NCI-H226) | GI50 (SF-295) | GI50 (EKVX) | GI50 (CAKI-1) | GI50 (KM12)
1 | COc1cc(C2C3=C(COC3=O)Oc3cc4c(cc32)OCO4)ccc1O (stereo not given) | 0.0728 µM (active) | 0.476 | 0.306 µM (active) | 0.543 µM (active) | 0.329 µM (active) | 0.0552 µM (active) | 0.252 µM (active) | 0.668 µM (active) | 0.653 µM (active) | 0.174 µM (active) | 0.242 µM (active) | 0.65 µM (active) | 0.448 µM (active) | 0.327 µM (active) | 0.356 µM (active) | 9.55 µM (inactive) | 0.127 µM (active) | 1.05 µM (active) | 0.0445 µM (active) | 0.262 µM (active)
2 | Cc1cc(C)n(C2OC(CO)C(O)C(O)C2O)c(=S)c1C#N (stereo not given) | > 100 µM (inactive) | > 100 | > 100 µM (inactive) | > 100 µM (inactive) | > 100 µM (inactive) | > 100 µM (inactive) | > 100 µM (inactive) | > 100 µM (inactive) | > 100 µM (inactive) | > 100 µM (inactive) | > 100 µM (inactive) | > 100 µM (inactive) | > 100 µM (inactive) | > 100 µM (inactive) | > 100 µM (inactive) | > 100 µM (inactive) | > 100 µM (inactive) |  | > 100 µM (inactive) | > 100 µM (inactive)
3 | CCOC(=O)C1(Cc2ccc3c(c2)CCC3)Cc2cc3c(cc2C1)CCC3 |  | 32 |  | 11.5 µM (inactive) | 23.9 µM (inactive) | 35.7 µM (inactive) | 23.9 µM (inactive) | 37.5 µM (inactive) | 33.7 µM (inactive) | 27.2 µM (inactive) | 78.5 µM (inactive) | 35.7 µM (inactive) | 25.5 µM (inactive) | 49 µM (inactive) | 30.6 µM (inactive) | 31.6 µM (inactive) | 25.1 µM (inactive) | 47.6 µM (inactive) | 45.7 µM (inactive) | 40.7 µM (inactive)
4 | CCCCCCCN(CCCCCCC)CC(O)c1cc2ccccc2c2cc(Br)ccc12 (stereo not given) |  | 7.53 |  | 35.1 µM (inactive) | 23.1 µM (inactive) | 33.1 µM (inactive) | 22.6 µM (inactive) | > 100 µM (inactive) | 24.5 µM (inactive) | 19.5 µM (inactive) | > 100 µM (inactive) | 36 µM (inactive) | 21.1 µM (inactive) | 57.1 µM (inactive) | 20.4 µM (inactive) |  | > 10 µM (inactive) | 25.8 µM (inactive) | 47.6 µM (inactive) | 
5 | O=C1NC(=O)C2=C1CCC2O (stereo not given) |  | > 100 | > 100 µM (inactive) | > 100 µM (inactive) | > 100 µM (inactive) | > 100 µM (inactive) | > 100 µM (inactive) | > 100 µM (inactive) | > 100 µM (inactive) | > 100 µM (inactive) | > 100 µM (inactive) | > 100 µM (inactive) | > 100 µM (inactive) | > 100 µM (inactive) | > 100 µM (inactive) | > 100 µM (inactive) | > 100 µM (inactive) | > 100 µM (inactive) | > 100 µM (inactive) | > 100 µM (inactive)
6 | COC(=O)C(=O)C(C(=O)C(=O)Nc1ccc(C)c(C)c1)c1nc2ccc([N+](=O)[O-])cc2nc1O (stereo not given) | > 100 µM (inactive) | > 100 | > 100 µM (inactive) | > 100 µM (inactive) | > 100 µM (inactive) | > 100 µM (inactive) | > 100 µM (inactive) | > 100 µM (inactive) | > 100 µM (inactive) | > 100 µM (inactive) | > 100 µM (inactive) | > 100 µM (inactive) | > 100 µM (inactive) | 68.9 µM (inactive) | > 100 µM (inactive) | > 100 µM (inactive) | > 100 µM (inactive) | 99.5 µM (inactive) | > 100 µM (inactive) | > 100 µM (inactive)
7 | Cc1ccc(S(=O)(=O)N(CCNC(=O)c2cccc(O)c2O)c2cc3c4c(c2)Oc2cccc5c2C4(C)c2c(cccc2O3)O5)cc1 | 22.1 µM (inactive) | > 100 |  | > 100 µM (inactive) | 14.6 µM (inactive) | 5.85 µM (inactive) | 14.6 µM (inactive) | 58.6 µM (inactive) | > 100 µM (inactive) | 29.2 µM (inactive) | 2.54 µM (inactive) | > 100 µM (inactive) | 28.8 µM (inactive) | > 100 µM (inactive) | 20.8 µM (inactive) | 7.74 µM (inactive) | > 100 µM (inactive) | 37.4 µM (inactive) | > 100 µM (inactive) | > 100 µM (inactive)
8 | O=C(O)c1cscc1Cc1cccs1 | > 100 µM (inactive) | > 100 | > 100 µM (inactive) | > 100 µM (inactive) | > 100 µM (inactive) | > 100 µM (inactive) | > 100 µM (inactive) | > 100 µM (inactive) | > 100 µM (inactive) | > 100 µM (inactive) | > 100 µM (inactive) | > 100 µM (inactive) | > 100 µM (inactive) |  | > 100 µM (inactive) | 23.5 µM (inactive) | > 100 µM (inactive) | > 100 µM (inactive) | > 100 µM (inactive) | > 100 µM (inactive)
9 | CCN(CCO)CC1COc2ccccc2O1 (stereo not given) | > 100 µM (inactive) | > 100 | > 100 µM (inactive) | > 100 µM (inactive) |  | > 100 µM (inactive) | > 100 µM (inactive) | > 100 µM (inactive) | > 100 µM (inactive) | > 100 µM (inactive) | > 100 µM (inactive) | > 100 µM (inactive) | > 100 µM (inactive) | > 100 µM (inactive) | > 100 µM (inactive) | > 100 µM (inactive) | > 100 µM (inactive) | > 100 µM (inactive) | > 100 µM (inactive) | > 100 µM (inactive)
10 | CCN(CCCOc1ccccc1)CCN(CC)CCCOc1ccccc1 | 2.22 µM (inactive) | 10.4 | 13.4 µM (inactive) | 2.57 µM (inactive) | 20.8 µM (inactive) | 13 µM (inactive) | 8.26 µM (inactive) |  | 16.3 µM (inactive) | 15.8 µM (inactive) | 20 µM (inactive) | 18.8 µM (inactive) | 11.7 µM (inactive) | 10.2 µM (inactive) | 14.2 µM (inactive) | 21.8 µM (inactive) | 15.6 µM (inactive) | 12.7 µM (inactive) | 16.4 µM (inactive) | 12.2 µM (inactive)
11 | NC12c3c4cccc3Oc3cccc(c31)Oc1cccc(c12)O4 |  | > 50 | > 50 µM (inactive) | > 50 µM (inactive) | > 50 µM (inactive) | > 50 µM (inactive) | > 50 µM (inactive) | > 50 µM (inactive) | > 50 µM (inactive) |  | > 50 µM (inactive) | > 50 µM (inactive) | > 50 µM (inactive) | > 50 µM (inactive) | > 50 µM (inactive) | > 50 µM (inactive) | > 50 µM (inactive) | > 50 µM (inactive) | > 50 µM (inactive) | > 50 µM (inactive)
12 | COc1ccc(-c2c3c(n(C4OC(CO)C(O)C(O)C4O)c(=S)c2C#N)CCCC3)cc1 (stereo not given) | 62.2 µM (inactive) | > 100 | > 100 µM (inactive) | 73.1 µM (inactive) | > 100 µM (inactive) | > 100 µM (inactive) | > 100 µM (inactive) | > 100 µM (inactive) | > 100 µM (inactive) | > 100 µM (inactive) | > 100 µM (inactive) | > 100 µM (inactive) | > 100 µM (inactive) |  | > 100 µM (inactive) | > 100 µM (inactive) | > 100 µM (inactive) | > 100 µM (inactive) | > 100 µM (inactive) | > 100 µM (inactive)
13 | CC(C)(C)c1ccc(O)c(CN(Cc2cc(C(C)(C)C)ccc2O)c2ccccc2)c1 | 15.1 µM (inactive) | 18.3 | 13.6 µM (inactive) | 15.6 µM (inactive) | 18.5 µM (inactive) | 16.2 µM (inactive) | 16 µM (inactive) | 14.8 µM (inactive) | 16.6 µM (inactive) | 15.8 µM (inactive) | 19.1 µM (inactive) | 21.1 µM (inactive) | 19.4 µM (inactive) | 14.4 µM (inactive) | 14.7 µM (inactive) |  | 17.5 µM (inactive) | 16.5 µM (inactive) | 31.8 µM (inactive) | 22.2 µM (inactive)
14 | Clc1ccc(C(c2ccc(Cl)cc2)N2CCNCC2)cc1 | 2.02 µM (inactive) | 2.58 | 4.22 µM (inactive) | 1.87 µM (inactive) | 2.22 µM (inactive) | 1.93 µM (inactive) | 1.75 µM (inactive) | 1.78 µM (inactive) | 2.16 µM (inactive) | 1.58 µM (inactive) | 3.1 µM (inactive) | 5.24 µM (inactive) | 1.73 µM (inactive) | 2.02 µM (inactive) | 1.77 µM (inactive) |  | 2.28 µM (inactive) | 3.02 µM (inactive) | 4.39 µM (inactive) | 1.77 µM (inactive)
15 | O=[N+]([O-])c1cccc(-c2nc(-c3ccccc3)c(-c3ccccc3)[nH]2)c1 | > 100 µM (inactive) |  | > 100 µM (inactive) | > 100 µM (inactive) | > 100 µM (inactive) | > 100 µM (inactive) | > 100 µM (inactive) | > 100 µM (inactive) |  | > 100 µM (inactive) | > 100 µM (inactive) | > 100 µM (inactive) | > 100 µM (inactive) | > 100 µM (inactive) | > 100 µM (inactive) | > 100 µM (inactive) | > 100 µM (inactive) | > 100 µM (inactive) | > 100 µM (inactive) | 
